Here are results for one compound from patent publication US5216005A, “Immunosuppressive analogues and derivatives of succinylacetone” (priority 1990, dated 1993).

The test system of the assay is adjuvant induced arthritis. Kind of assay: adjuvant induced arthritis in rats, overall arthritis score; intraarticular right paw, per kg: succinylacetone 325 μg, methyl ester 150 μg, 4-acetyl-5-oxohexanoate 560 μg. The assay is classed as in vivo, rat.

Molecules are shown by their SMILES.

On to `CC(=O)CC(=O)CCC(=O)O` [Succinylacetone, 4,6-dioxoheptanoic acid], for which the overall arthritis score runs as follows: (Exp. I (treated from same day), day 14) 0.6 ± 1.3; (Exp. I (treated from same day), day 16) 0.8 ± 1.8; (Exp. I (treated from same day), day 18) 1.4 ± 2.6; (Exp. I (treated from same day), day 20) 3 ± 5; (Exp. I (treated from same day), day 22) 3.8 ± 5; (Exp. I (treated from same day), day 24) 4 ± 3.9. Also, the overall arthritis score runs as follows: (Exp. I (treated from same day), day 26) 5 ± 4.3; (Exp. II (treated from day 4), day 14) 3.2 ± 3.8; (Exp. II (treated from day 4), day 16) 3.2 ± 3.8; (Exp. II (treated from day 4), day 18) 4.8 ± 3.6; (Exp. II (treated from day 4), day 20) 7 ± 2.3; (Exp. II (treated from day 4), day 22) 6.2 ± 2.4. The overall arthritis score runs as follows: (Exp. II (treated from day 4), day 24) 6 ± 2.7; (Exp. II (treated from day 4), day 26) 7.8 ± 3; (Exp. III (treated from day 14), day 14) 2.0 ± 3.9; (Exp. III (treated from day 14), day 16) 2.0 ± 3.9; (Exp. III (treated from day 14), day 18) 2.0 ± 2.9; (Exp. III (treated from day 14), day 20) 2.4 ± 2.9. In addition, the overall arthritis score came out at 4.0 ± 3.7 (Exp. III (treated from day 14), day 22); 2.8 ± 2.8 (Exp. III (treated from day 14), day 24); 3.4 ± 2.7 (Exp. III (treated from day 14), day 26). Besides, the effect on arthritis result (comparison of treatment schedules, in words) is given as “also effective when administered 14 days subsequent to injection”.
